Source: patent US10463671B2, “Combination therapy for treating cancer” (Epizyme, Inc., priority 2013, dated 2019)

Test system: glucocorticoid signaling genes in SU-DHL4 cells
Assay: RT2 Glucocorticoid Signaling PCR array
Type: cell-based
Design: IL10 Ct Values / TNF Ct Values: unit not given here
Settings: SUDHL4 cell line, 4 days

CCN(c1cc(-c2ccc(CN3CCOCC3)cc2)cc(C(=O)NCc2c(C)cc(C)[nH]c2=O)c1C)C1CCOCC1 [Compound 44]
ACTB Ct Values: 14.247 | ADARB1 Ct Values: 28.562 | AFF1 Ct Values: 25.936 | AK2 Ct Values: 20.311 | AMPD3 Ct Values: 25.553 | ANGPTL4 Ct Values: 29.825 | ANXA4 Ct Values: 28.717 | ARID5B Ct Values: 25.129 | ASPH Ct Values: 23.348 | ATF4 Ct Values: 18.778 | B2M Ct Values: 18.971 | BCL6 Ct Values: 21.075 | CEBPA Ct Values: 31.206 | CEBPB Ct Values: 23.911 | CREB1 Ct Values: 22.973 | CREB3 Ct Values: 24.566 | CREB3L4 Ct Values: 25.089 | CYB561 Ct Values: 36.737 | DDIT4 Ct Values: 21.455 | DUSP1 Ct Values: 26.325 | EDN1 Ct Values: 33.297 | EHD3 Ct Values: 25.766 | FKBP5 Ct Values: 20.494 | FOSL2 Ct Values: 31.757 | GAPDH Ct Values: 15.835 | GDPD1 Ct Values: 28.134 | GHRHR Ct Values: 37.623 | GLUL Ct Values: 35.795 | GOT1 Ct Values: 22.607 | H6PD Ct Values: 25.743 | HAS2 Ct Values: 35.628 | HNRPLL Ct Values: 22.977 | HPRT1 Ct Values: 21.358 | IL6R Ct Values: 33.589 | IL10 Ct Values: 33.099 | KLF9 Ct Values: 27.456 | KLF13 Ct Values: 22.649 | MT2A Ct Values: 24.175 | NFKBIA Ct Values: 22.909 | NR3C1 Ct Values: 22.803 | PDCD7 Ct Values: 24.858 | PDP1 Ct Values: 26.112 | PER1 Ct Values: 24.926 | PER2 Ct Values: 24.371 | PIK3R1 Ct Values: 23.440 | PLEKHF1 Ct Values: 27.868 | POU2F1 Ct Values: 24.224 | POU2F2 Ct Values: 21.920 | RASA3 Ct Values: 23.207 | RGS2 Ct Values: 25.145 | RHOB Ct Values: 32.584 | RPLP0 Ct Values: 15.469 | SGK1 Ct Values: 25.808 | SLC10A6 Ct Values: 34.857 | SLC19A2 Ct Values: 27.465 | SLC22A5 Ct Values: 28.544 | SNTA1 Ct Values: 24.797 | SPHK1 Ct Values: 30.619 | SPSB1 Ct Values: 26.495 | STAT5A Ct Values: 25.174 | STAT5B Ct Values: 22.153 | TBL1XR1 Ct Values: 20.805 | TNF Ct Values: 29.337 | TNFAIP3 Ct Values: 28.521 | TSC22D3 Ct Values: 21.432 | USP2 Ct Values: 21.342 | USP54 Ct Values: 26.952 | VDR Ct Values: 28.330 | VLDLR Ct Values: 28.792 | ZFP36 Ct Values: 24.706 | ZHX3 Ct Values: 24.719 | ZNF281 Ct Values: 23.881 | AK2 ΔΔCT (compared to DMSO): −0.570 | CREB3 ΔΔCT (compared to DMSO): −0.490 | FKBP5 ΔΔCT (compared to DMSO): 0.008 | GOT1 ΔΔCT (compared to DMSO): 0.065 | TSC22D3 ΔΔCT (compared to DMSO): −0.002
